Reference: PubChem BioAssay (NCI)
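Grown in 96-well plates, cells were treated for 48 hours with each compound at five concentrations. Insufficient inhibition: endpoint recorded as highest concentration tested. GI50: concentration for 50% inhibition of growth. TGI: concentration producing complete growth inhibition.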

Tests used:
Experiment in all cases: NCI anticancer screen, dose series, 48 h
[1] = system: 786-0 renal
[2] = system: A498 renal
[3] = system: A549 NSCLC
[4] = system: ACHN renal
[5] = system: BT-549 breast
[6] = system: CAKI-1 renal
[7] = system: CCRF-CEM leukemia
[8] = system: COLO 205 colon
[9] = system: DU-145 prostate
[10] = system: EKVX NSCLC
[11] = system: HCC-2998 colon
[12] = system: HCT-116 colon
[13] = system: HCT-15 colon
[14] = system: HL-60(TB) leukemia
[15] = system: HOP-62 NSCLC
[16] = system: HOP-92 NSCLC
[17] = system: HS 578T breast
[18] = system: HT29 colon
[19] = system: IGROV1 ovarian
[20] = system: K-562 leukemia
[21] = system: KM12 colon
[22] = system: LOX IMVI melanoma
[23] = system: M14 melanoma
[24] = system: MALME-3M melanoma
[25] = system: MCF7 breast
[26] = system: MDA-MB-231 breast
[27] = system: MDA-MB-435
[28] = system: MDA-MB-468 breast
[29] = system: MOLT-4 leukemia
[30] = system: NCI-H226 lung
[31] = system: NCI-H23 lung
[32] = system: NCI-H460 lung
[33] = system: NCI-H522 lung
[34] = system: NCI/ADR-RES ovarian
[35] = system: OVCAR-3 ovarian
[36] = system: OVCAR-4 ovarian
[37] = system: OVCAR-5 ovarian
[38] = system: OVCAR-8 ovarian
[39] = system: PC-3 prostate
[40] = system: RPMI-8226 leukemia
[41] = system: RXF 393 renal
[42] = system: SF-268 CNS
[43] = system: SF-295 CNS
[44] = system: SF-539 CNS
[45] = system: SK-MEL-2 melanoma
[46] = system: SK-MEL-28 melanoma
[47] = system: SK-MEL-5 melanoma
[48] = system: SK-OV-3 ovarian
[49] = system: SN12C renal
[50] = system: SNB-19 CNS
[51] = system: SNB-75 CNS
[52] = system: SR leukemia
[53] = system: SW-620 colon
[54] = system: T-47D breast
[55] = system: TK-10 renal
[56] = system: U251 CNS
[57] = system: UACC-257 melanoma
[58] = system: UACC-62 melanoma
[59] = system: UO-31 renal

O=C(CNc1nc(-c2ccccc2)cs1)Nc1ccc([N+](=O)[O-])cc1
GI50 [1]: 4.1 µM | TGI [1]: 14.1 µM | GI50 [2]: 16.9 µM | TGI [2]: 32.3 µM | GI50 [3]: 9.71 µM | TGI [3]: 24.4 µM | GI50 [4]: 2.39 µM | TGI [4]: 6.98 µM | GI50 [5]: 2.35 µM | TGI [5]: 10.1 µM | GI50 [6]: 5.26 µM | TGI [6]: 18.3 µM | GI50 [7]: 2.71 µM | TGI [7]: 13.4 µM | GI50 [8]: 4.59 µM | TGI [8]: 15.9 µM | GI50 [9]: 10.9 µM | TGI [9]: 25.4 µM | GI50 [10]: 3.8 µM | TGI [10]: 14.6 µM | GI50 [11]: 3.5 µM | TGI [11]: 12.9 µM | GI50 [12]: 3.22 µM | TGI [12]: 14.2 µM | GI50 [13]: 3.47 µM | TGI [13]: 13.1 µM | GI50 [14]: 2.97 µM | TGI [14]: 10.6 µM | GI50 [15]: 14.4 µM | TGI [15]: 35 µM | GI50 [16]: 6.65 µM | TGI [16]: 25.1 µM | GI50 [17]: 10.2 µM | TGI [17]: > 100 µM | GI50 [18]: 3.73 µM | TGI [18]: 15.8 µM | GI50 [19]: 3.84 µM | TGI [19]: 16 µM | GI50 [20]: 3.26 µM | TGI [20]: > 100 µM | GI50 [21]: 8.27 µM | TGI [21]: 20.7 µM | GI50 [22]: 2.2 µM | TGI [22]: 11.1 µM | GI50 [23]: 5.07 µM | TGI [23]: 19.7 µM | GI50 [24]: 2.29 µM | TGI [24]: 6.21 µM | GI50 [25]: 2.9 µM | TGI [25]: 12.1 µM | GI50 [26]: 3.07 µM | TGI [26]: 12.5 µM | GI50 [27]: 6.79 µM | TGI [27]: 19.2 µM | GI50 [28]: 1.55 µM | TGI [28]: 3.16 µM | GI50 [29]: 3.66 µM | TGI [29]: 23 µM | GI50 [30]: 12.5 µM | TGI [30]: 28.3 µM | GI50 [31]: 3.32 µM | TGI [31]: 13.7 µM | GI50 [32]: 10.2 µM | TGI [32]: 23.8 µM | GI50 [33]: 1.9 µM | TGI [33]: 3.92 µM | GI50 [34]: 3.77 µM | TGI [34]: 20.4 µM | GI50 [35]: 3.65 µM | TGI [35]: 13.3 µM | GI50 [36]: 3.52 µM | TGI [36]: 12.8 µM | GI50 [37]: 7.22 µM | TGI [37]: 20.1 µM | GI50 [38]: 11.1 µM | TGI [38]: 28.2 µM | GI50 [39]: 4.75 µM | TGI [39]: 23.2 µM | GI50 [40]: 3.25 µM | TGI [40]: 19.8 µM | GI50 [41]: 2.77 µM | GI50 [42]: 4.82 µM | TGI [42]: 29.5 µM | GI50 [43]: 8.63 µM | TGI [43]: 21.6 µM | GI50 [44]: 3.19 µM | TGI [44]: 10.2 µM | GI50 [45]: 14.2 µM | TGI [45]: 30.5 µM | GI50 [46]: 10.3 µM | TGI [46]: 21.9 µM | GI50 [47]: 5.82 µM | TGI [47]: 18.6 µM | GI50 [48]: 16.4 µM | TGI [48]: 40.1 µM | GI50 [49]: 3.37 µM | TGI [49]: 13.6 µM | GI50 [50]: 10.7 µM | TGI [50]: 22.5 µM | GI50 [51]: 3.16 µM | TGI [51]: 15.5 µM | GI50 [52]: 6.62 µM | TGI [52]: 41.3 µM | GI50 [53]: 5.01 µM | TGI [53]: 18 µM | GI50 [54]: 4.23 µM | TGI [54]: 21.3 µM | GI50 [55]: 11.1 µM | TGI [55]: 24.2 µM | GI50 [56]: 2.85 µM | TGI [56]: 11.1 µM | GI50 [57]: 8.41 µM | TGI [57]: 21.8 µM | GI50 [58]: 4.41 µM | TGI [58]: 17 µM | GI50 [59]: 4.58 µM | TGI [59]: 18.1 µM
